Test results reported in patent publication US5652239A, “Pyridazinedione derivatives useful in treatment of neurological disorders” (Imperial Chemical Company, priority 1991, dated 1997).
pIC50: −log10 of the molar value.

Assays:
[1] = system: NMDA receptor-mediated synaptic transmission in hippocampal slices; settings: reference antagonists, 0 Mg++, general statement; cited from earlier work
[2] = system: neuronal damage in the hippocampus; assay: Test D: ischemia induced by carotid occlusion in the gerbil model; format: in vivo, adult female Mongolian gerbils; settings: 10 mg/Kg intraperitoneally, 45 minutes before and 5 minutes after occlusion
Excerpt: (§1) The actions of compounds of formula I as antagonists at the glycine receptor of the NMDA receptor complex can be shown by one or more standard tests such as the [^3 H]-glycine binding assay (Test A), by functional assays in vitro such as tests for measuring glutamate-evoked contractions of the guinea pig ileum (Test B) and/or tests for measuring antagonism of NMDA-induced evoked response in hippocampal slices (Test C), and by tests in vivo such as ischemia induced by carotid occlusion in the gerbil model (Test D).
When testing in vivo using the gerbil ischemic model, adult female Mongolian gerbils (50-70 g) are anesthetized with 2 to 3% halothane. The bilateral common carotid arteries at the neck are exposed and occluded with microaneurysm clips. After 10 min (unless specified), the clips are removed and the blood flow through the carotid arteries is restored and the skin is sutured. […] Gross behavioral observations along with motor activity are recorded for 2 hr on the first (24 hr) day following the occlusion. […]
Sections (7 micron) are evaluated from each brain. […] The average brain damage rating score for each group is recorded, and the damage scores of the drug treated group are compared to the vehicle-treated group using Wilcoxon-Rank Sum test. […]

[3] = system: glutamate-evoked contractions of the guinea pig ileum; assay: Test B: glutamate-evoked contractions of the guinea pig ileum; format: cell-based; settings: Cavia porcellus; twitch responses evoked with 100 micromolar glutamate
Excerpt: as §1
For glutamate-evoked contractions of the guinea pig ileum, the methodology is as described previously (Luzzi et. al., Br. J. Pharmacol., 95, 1271-1277 (1989)). The longitudinal muscle and associated myenteric plexus are removed and placed in oxygenated modified Krebs-Henseleit solution (118 millimolar NaCl, 4.7 millimolar KCl, 2.5 millimolar CaCl2, 1.2 millimolar KH2 PO4, 25 millimolar NaHCO3, and 11 millimolar glucose). Tissues are suspended on glass rods in organ baths under a resting tension of 0.5 g. After an initial depolarization with 80 millimolar potassium ion to remove possible blockade of the NMDA receptor channel complex with magnesium ion, twitch responses are evoked with 100 micromolar glutamate. Isometric mechanical responses are recorded. Tissues are equilibrated for at least 2 hours prior to addition of compounds.
A dose response curve for the effect of the unknown on the magnitude of the glutamate-evoked contractions is generated. Glutamate-evoked contractions are generated at 20 minute intervals, with the test compound added 5 minutes before the glutamate. The magnitude of the contraction with each dose of the unknown is expressed relative to the control, the third contraction evoked by 100 micromolar glutamate alone in the same tissue bath. The IC50 is obtained from a least-squares regression of a logit-log transformation of the data.
After the last contraction for the dose-response curve, 100 micromolar glycine is added to the bath 10 minutes after the previous addition of glutamate. […]

[4] = target: T1, glycine receptor of the NMDA receptor complex (Rattus norvegicus, UniProt P35439); assay: Test A: [^3 H]-glycine binding assay; design: species or system male Sprague-Dawley rats; settings: 20 nanomolar [^3 H]-glycine, rat cortical/hippocampal synaptic membranes, pH 7.1, 30 minutes at 4° C.
T1 construct: neuronal synaptic membranes are prepared from adult (about 250 g) male Sprague-Dawley rats; from tissue; host or cells: cerebral cortices and hippocampi of adult male Sprague-Dawley rats, synaptic membranes
Excerpt: as §1
In the [^3 H]-glycine binding assay, neuronal synaptic membranes are prepared from adult (about 250 g) male Sprague-Dawley rats. Freshly dissected cortices and hippocampi are homogenized in 0.32M sucrose (110 mg/mL). Synaptosomes are isolated by centrifugation (1000 xg, 10 min), the supernatant is pelleted (20,000 xg, 20 min) and resuspended in double-distilled water. The suspension was centrifuged for 20 minutes at 8,000 xg. The resulting […] and buffy coat are washed twice (48,000 xg, 10 mins, resuspension in double-deionized water). The final pellet is quickly frozen (dry ice/ethanol bath) under double-deionized water and stored at -70° C.
On the day of the experiment, thawed synaptic membranes are homogenized with a Brinkmann Polytron (™, Brinkmann Instruments, Westbury, N.Y.) tissue homogenizer in 50 millimolar tris(hydroxymethyl)aminomethane citrate, pH 7.1. The membranes are incubated with 0.04% Sufact-AMPS X100 (™, Pierce, Rockford, Ill.) in buffer for 20 minutes at 37° C. and washed six times by centrifugation (48,000 xg, 10 min) and resuspended in buffer. The final pellet is homogenized at 200 mg wet weight/mL of the buffer for the binding assay.
For [^3 H]-glycine binding at the N-methyl-D-aspartate receptor, 20 nanomolar [^3 H]-glycine (40-60 Ci/mmol, New England Nuclear, Boston, Mass.) is incubated with the membranes suspended in 50 millimolar tris (hydroxymethyl)aminomethane citrate, pH 7.1 for 30 minutes at 4° C. Glycine, 1 millimolar, is used to define the nonspecific binding. […] Radioactivity is estimated by liquid scintillation counting. […]

[5] = system: NMDA receptor-mediated synaptic transmission in hippocampal slices; assay: Test C: hippocampal slice test (HST), antagonism of NMDA-induced evoked response; format: cell-based, male Sprague-Dawley rats; settings: 0 Mg++; for inhibition of the secondary PSs (antagonism) / reversal of the inhibition by D-serine: Example 1 at 15.2 μM, Example 4 at 10 μM; for concentration at which glycine antagonism is exhibited: evaluated at a multiple of the Test B IC50
Excerpt: as §1
The characterization of a compound as a glycine antagonist in the hippocampal slice test (HST) is dependent on (1) the ability of the compound to inhibit NMDA receptor-mediated synaptic transmission in hippocampal slices and (2) the subsequent reversal of these inhibitory effects by D-serine.
The procedure for the HST is as follows. Transverse hippocampal slices are obtained from male Sprague-Dawley rats weighting 80-150 gm. The rats are decapitated and the brains quickly removed and placed in cold Krebs-Ringersolution which contains (in millimolar) NaCl (122.6), NaHCO3 (26.2), KCl (5.4), MgSO4 (2.0), NaH2 PO4 (1.2), CaCl2 (2.0), and D-glucose (10.0). The hippocampus is dissected free from surrounding tissues, and 495 microns thick slices are cut and immediately transferred to a humidified static interface chamber with a 95% O2 :5% CO2 atmosphere at room temperature. Following a 1-hour equilibration period, slices are placed one at a time into a small perfusion chamber where they are completely submerged in continuously flowing oxygenated 2 millimolar Mg++ perfusate (4 mL/min) at 33° C. and allowed to equilibrate for 10 to 15 min.
For the electrophysiology part of the experiments, bipolar tungsten stimulating electrodes are positioned in the stratum radiatum of the CA3 cell body region of the hippocampus and a single-barrel glass microelectrode filled with Krebs-Ringer solution is positioned in the CA1 cell body region. Low frequency stimulation is then applied to area CA3 which evokes a primary population spike (PS) recorded from CA1. The primary PS represents the summation of a multiple of synaptic potentials mediated via the quisqualate receptor. The stimulus intensity is adjusted to evoke a PS of 1-4 mV amplitude and is maintained at this intensity throughout the experiment.
When the perfusion medium is then changed from 1 millimolar Mg++ to one containing 0 Mg++, the primary PS is followed by the appearance of many secondary PSs. The appearance of the secondary PSs are attributed to the unmasking of NMDA-mediated synaptic events in 0 Mg++. […] The effects of directly acting NMDA and indirectly acting NMDA (ie, glycine) receptor antagonists can also be differentiated by the ability of D-serine to reverse this inhibition.

Compound | reversal of the inhibition of the secondary PSs by D-serine [1] | pIC50 [3] | pIC50 [4] | also measured
O=C(O)c1cc(O)c2ccc(Cl)cc2n1 [7-chlorokynurenic acid] | reversed by D-serine | – | – | inhibition of the secondary PSs [1]: inhibit the secondary PSs
NC(CCCP(=O)(O)O)C(=O)O (stereo not shown) [APV] | not reversed by D-serine | – | – | –
O=C(O)C1CN(CCCP(=O)(O)O)CCN1 (stereo not shown) [CPP] | not reversed by D-serine | – | – | –
O=c1[nH][nH]c(=O)c2c1[nH]c1cc(Cl)ccc12 [Example 1] | – | 4.89 | 6.26 | neuroprotection (relative to sham-operated control) [2]: 34%; inhibition of the secondary PSs (antagonism) [5]: antagonist; reversal of the inhibition by D-serine [5]: reversible by D-serine; concentration at which glycine antagonism is exhibited [5]: 15.2 µM
O=c1[nH][nH]c(=O)c2c1[nH]c1cc(Cl)cc(Cl)c12 [Example 4] | – | 5.19 | 6.48 | neuroprotection (relative to sham-operated control) [2]: over 75%; inhibition of the secondary PSs (antagonism) [5]: antagonist; reversal of the inhibition by D-serine [5]: reversible by D-serine; concentration at which glycine antagonism is exhibited [5]: 10 µM
O=c1[nH][nH]c(=O)c2c1[nH]c1cc(C(F)(F)F)cc(C(F)(F)F)c12 [Example 7, 7,9-Ditrifluoromethylpyridazino[4,5-b]indole-1,4-dione] | – | 4.16 | 5.57 | –
NC1CCN(O)C1=O (stereo not shown) [HA-966] | reversed by D-serine | – | – | inhibition of the secondary PSs [1]: inhibit the secondary PSs
C[C@]12N[C@H](Cc3ccccc31)c1ccccc12 [MK-801] | not reversed by D-serine | – | – | –
c1ccc(C2(N3CCCCC3)CCCCC2)cc1 [PCP] | not reversed by D-serine | – | – | –
